The data set can be described thus: PORTICO PK substudy: steady-state plasma macitentan and ACT-132577. Type of data set: in vivo, human. On the procedure:
It was planned to enroll at least 20 patients who were on steady-state treatment with macitentan (i.e., at least 4 weeks) into the PK substudy. The substudy was conducted in consenting patients from all centers across all regions who agreed to participate. The substudy consisted of the following periods:
PK assessments period: PK assessments were to be performed after OL study treatment had been taken for at least 4 weeks. The substudy comprised two visits (Day 1: Enrollment and Day 2: Conclusion). See, FIG. 2. Subject eligibility was first checked on Day 1 of the PK substudy prior to the start of assessments.
PK substudy: On Day 1 of the PK substudy, the study treatment was required to be taken directly after the pre-dose blood sample. On Day 2 of the PK substudy, study treatment was required to be taken after the collection of the last PK blood sample (24 hours post Day 1 dose).
F3. Pharmacokinetic Endpoints for Macitentan and its Active Metabolite ACT-132577 • The area under the plasma concentration-time curve during one dosing interval (AUCt). • Maximum plasma concentration (Cmax) during a dosing interval. • The time to reach maximum plasma concentration (tmax) during a dosing interval.
(i) Timing for sampling: For the PK assessment, blood samples were drawn at the following time points: • PK substudy Day 1: Immediately before study treatment administration in the morning (pre-dose) and 1 h, 3 h, 5 h, 6 h, 7 h, 8 h, 9 h, 10 h, 12 h, and 14 h post-dose. • PK substudy Day 2: 24 h post-dose.
(iii) Bioanalysis: A validated liquid chromatography coupled to mass spectrometry method was used for determining the concentrations of macitentan and its metabolite ACT-132577 in plasma. The limit of quantification (LOQ) for both analytes was 1 ng/mL.
The measured individual plasma concentrations of macitentan and its metabolite ACT-132577 were used to directly obtain Cmax and tmax. AUCT was calculated according to the linear trapezoidal rule using the measured concentration-time values above the LOQ during one dosing interval. The PK variables were calculated on the basis of the real (actual) blood sampling time points. For mean value calculations, all values below the LOQ (below the limit of quantification (BLQ) values) were set to zero if ≤50% of the values at a given time point were BLQ. If >50% of the values at a given time point were BLQ, no mean value was calculated. Mean concentration-time profiles were generated using these criteria. The individual and mean plasma concentration-time profiles were plotted on a linear scale. The derived PK variables for macitentan and ACT-132577 (AUCT, Cmax, tmax) are listed by patient. Plasma concentrations per time point were summarized using arithmetic mean, minimum, median, maximum, standard deviation (SD), standard error (SE), and two-sided 95% confidence interval of the mean. […] (*For tmax the geometric mean and its 95% confidence interval were not calculated).

Structures are written as SMILES. Entries after “also recorded” stand apart in the source; their conditions may differ.

Broadly, the Cmax is the maximum level reached in the sampled fluid or tissue. As a reminder, the Tmax is the time at which the peak concentration occurs. With `CCCNS(=O)(=O)Nc1ncnc(OCCOc2ncc(Br)cn2)c1-c1ccc(Br)cc1` [macitentan, N-[5-(4-Bromophenyl)-6-[2-[(5-bromo-2-pyrimidinyl)oxy]ethoxy]-4-pyrimidinyl]-N′-propylsulfamide], the “Plasma exposure in PoPH patients compared with other forms of PAH / other macitentan studies” value was “consistent between PoPH patients and patients with other forms of PAH; also recorded: comparable between patients with PoPH and other forms of PAH; also recorded: consistent with those in other macitentan studies”. Further, the “Trough plasma concentration, mean±SD” value (OL macitentan 10 mg o.d. at least 4 weeks, PoPH patients, n=8) stood at 213.1 ± 86.4 ng/mL. In addition, the Cmax (human, plasma, oral, macitentan 10 mg o.d., PoPH patients, PKS 10 patients, read-out: Cmax, geometric mean (95% confidence interval)) was determined as 369 ng/mL. Moreover, the Tmax (human, plasma, oral, macitentan 10 mg o.d., PoPH patients, PKS 10 patients, read-out: tmax, median (range)) was 6.5 h. The AUC(0-t) (human, plasma, oral, one dosing interval, macitentan 10 mg o.d., PoPH patients, read-out: AUCT, geometric mean (95% confidence interval)) turned out to be 6660 ng·h/mL.
